Patent publication US7276519B2, “Thieno[3,2-b]pyridine-6-carbonitriles and thieno[2,3-b]pyridine-5-carbonitriles as protein kinase inhibitors” (Wyeth, priority 2002, dated 2007)
pIC50: −log10 of the molar value. Where “and” joins values, the source holds several entries; their conditions need not be identical. Identical values can stand only once. Like-named read-outs stand apart in the source and are kept apart here.

What was measured:
[1] = tested on: Rat2 fibroblasts stably transformed with v-Src/Hu c-Src fusion gene; assay: Anchorage independent Src-transformed fibroblast proliferation assay; type: cell-based, rat; conditions: for IC50: read-out: Src Cells IC50 μM or % inhib at 10 μM (IC50 values); for inhibition at 100 µM: Rat2, Table 1, read-out: Src cells % inh at 100 μM; for pIC50: Table 1, suspension growth, MTS readout Day 5, read-out: Src cells IC50
Procedure: Anchorage Independent Src-Transformed Fibroblast Proliferation Assay Rat2 fibroblasts stably transformed with a plasmid containing a CMV promotor controlled v-Src/Hu c-Src fusion gene in which the catalytic domain of human c-Src was inserted in place of the v-Src catalytic domain in the v-Src gene are used for the measurement of src dependent suspension growth. […] Multiple entries for a given compound indicate that it was tested multiple times.

[2] = molecular target: T1, Rat2 fibroblasts stably transformed with v-Src/Hu Lck fusion gene (Homo sapiens, UniProt P06239, cells depend on it, form not given); assay: Anchorage independent Lck-transformed fibroblast proliferation assay; type: cell-based, rat
T1 construct: Candidates are e.g. Schmidt-Ruppin A (P00524) or Prague C (P00526); The human Lck catalytic domain stands in place of the v-Src catalytic domain
T1 sequence (P06239 whole entry, change not shown, the tested form may be a part): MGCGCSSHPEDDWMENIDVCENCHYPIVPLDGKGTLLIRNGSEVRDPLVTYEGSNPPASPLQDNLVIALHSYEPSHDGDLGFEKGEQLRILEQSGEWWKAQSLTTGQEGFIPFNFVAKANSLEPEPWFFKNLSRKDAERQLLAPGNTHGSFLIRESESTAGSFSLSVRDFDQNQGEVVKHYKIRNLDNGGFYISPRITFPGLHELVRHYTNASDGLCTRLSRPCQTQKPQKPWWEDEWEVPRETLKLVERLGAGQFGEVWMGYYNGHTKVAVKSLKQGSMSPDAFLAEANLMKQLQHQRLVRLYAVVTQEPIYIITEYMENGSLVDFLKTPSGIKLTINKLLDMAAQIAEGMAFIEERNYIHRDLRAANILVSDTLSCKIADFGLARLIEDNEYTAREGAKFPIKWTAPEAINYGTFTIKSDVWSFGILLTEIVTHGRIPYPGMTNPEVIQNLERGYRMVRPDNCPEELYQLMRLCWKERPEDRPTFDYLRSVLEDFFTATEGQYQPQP
Procedure: Anchorage Independent Lck-Transformed Fibroblast Proliferation Assay
Rat2 fibroblasts stably transformed with a plasmid containing a CMV promotor controlled v-Src/Hu Lck fusion gene in which the catalytic domain of human Lck was inserted in place of the v-Src catalytic domain in the v-Src gene are used for the measurement of src dependent suspension growth. Ultra-low cluster plates (Costar # 3474) are seeded with 10,000 cells per well on Day 1. Compound is added in serial two-fold dilutions from 10 micromolar to 0.009 micromolar on Day 2 and MTS reagent (Promega) is added on Day 5 (100 microliters of MTS/medium mix+100 microliters of medium already on the cells and the absorbance is measured at 490 nm. The results are analyzed as follows to yield an IC50 for proliferation (micromolar units) as follow: % inhibition=(Abs490 nm sample−blank)/(Abs490 nm no cmpd control−blank)×100%. The results obtained for representative compounds of this invention are listed in Table 2. Multiple entries for a given compound indicate that it was tested multiple times.

[3] = Table 3, read-out: Lck Cells IC50
[4] = Table 2, suspension growth, MTS readout Day 5, read-out: Lck cells IC50
[5] = Rattus norvegicus, Rat2, Table 3

| Compound | IC50 ([1]; Table 3) | GI50 [2, 3] | melting point [°C] | IC50 [1, 5] [µM] | other results |
| --- | --- | --- | --- | --- | --- |
| 7-[(2,4-dichloro-5-methoxyphenyl)amino]-2-{4-[(4-pyrrolidin-1-ylpiperidin-1-yl)methyl]phenyl}thieno[3,2-b]pyridine-6-carbonitrile [Example 71] | 1.6 µM and 0.9 µM | 0.2 µM and 0.11 µM | – | – | – |
| COc1cc(Nc2c(C#N)cnc3cc(-c4ccc(CN5CCOCC5)cc4)sc23)c(Cl)cc1Cl [Example 15, 7-[(2,4-Dichloro-5-methoxyphenyl)amino]-2-[4-(4-morpholinylmethyl)phenyl]thieno[3,2-b]pyridine-6-carbonitrile] | – | – | 244 to 245 | – | GI50 [2, 4]: 0.35 µM |
| COc1cc(Nc2c(C#N)cnc3cc(-c4csc(CN5CCN(C)CC5)c4)sc23)c(Cl)cc1Cl [Example 38, 7-[(2,4-Dichloro-5-methoxyphenyl)amino]-2-{5-[(4-methylpiperazin-1-yl)methyl]thien-3-yl}thieno[3,2-b]pyridine-6-carbonitrile] | – | – | 224 to 226 | – | GI50 [2, 4]: 0.17 µM and 0.18 µM and 0.13 µM |
| COc1cc(Nc2c(C#N)cnc3cc(-c4ccc(C=O)cc4)sc23)cc(OC)c1OC [Example 55, 2-(4-Formylphenyl)-7-[(3,4,5-trimethoxyphenyl)amino]thieno[3,2-b]pyridine-6-carbonitrile] | – | – | 268 to 270 | – | inhibition at 100 µM ([1]; Rattus norvegicus): 97% |
| COc1cc(Nc2c(C#N)cnc3cc(/C=C/C(=O)N4CCN(C)CC4)sc23)c(Cl)cc1Cl [Example 56, 7-[(2,4-Dichloro-5-methoxyphenyl)amino]-2-[(1E)-3-(4-methylpiperazin-1-yl)-3-oxoprop-1-enyl]thieno[3,2-b]pyridine-6-carbonitrile] | – | – | 218 to 220 | – | pIC50 ([1]; Rattus norvegicus, Rat2, 120 h): 5.41; pIC50 [1]: 5.66 |
| COc1cc(Nc2c(C#N)cnc3cc(C#CCN4CCN(C)CC4)sc23)cc(OC)c1OC [Example 57, 2-[3-(4-Methylpiperazin-1-yl)prop-1-ynyl]-7-[(3,4,5-trimethoxyphenyl)amino]thieno[3,2-b]pyridine-6-carbonitrile] | – | – | 180 to 182 | – | inhibition at 100 µM ([1]; Rattus norvegicus): 70% |
| COc1cc(Nc2c(C#N)cnc3cc(-c4ccc(CN(C)C)cc4)sc23)c(Cl)cc1Cl [Example 62, 7-[(2,4-Dichloro-5-methoxyphenyl)amino]-2-{4-[(dimethylamino)methyl]phenyl}thieno[3,2-b]pyridine-6-carbonitrile] | – | – | 224 to 225 | – | GI50 [2, 4]: 0.079 µM |
| COc1cc(Nc2c(C#N)cnc3cc(C#Cc4cnn(CCN5CCOCC5)c4)sc23)c(Cl)cc1Cl [Example 65, 7-[(2,4-Dichloro-5-methoxyphenyl)amino]-2-{[1-(2-morpholin-4-ylethyl)-1H-pyrazol-4-yl]ethynyl}thieno[3,2-b]pyridine-6-carbonitrile] | – | > 10 µM | – | 0.7 | – |
| COc1cc(Nc2c(C#N)cnc3cc(-c4ccc(C=O)o4)sc23)c(Cl)cc1Cl [Example 67, 7-[(2,4-dichloro-5-methoxyphenyl)amino]-2-(5-formyl-2-furyl)thieno[3,2-b]pyridine-6-carbonitrile] | – | 1.5 µM and 1.7 µM | – | 3.7 | – |
| COc1cc(Nc2c(C#N)cnc3cc(-c4ccc(C=O)s4)sc23)c(Cl)cc1Cl [Example 79, 7-[(2,4-dichloro-5-methoxyphenyl)amino]-2-(5-formylthien-2-yl)thieno[3,2-b]pyridine-6-carbonitrile] | 2.8 µM | 1.5 µM and 1.6 µM | – | 2.4 | – |
| COc1cc(Nc2c(C#N)cnc3cc(-c4ccc(CN(C)CCCN(C)C)cc4)sc23)c(Cl)cc1Cl [Example 85, 7-[(2,4-dichloro-5-methoxyphenyl)amino]-2-(4-{[[3-(dimethylamino)propyl](methyl)amino]methyl}phenyl)thieno[3,2-b]pyridine-6-carbonitrile] | 3.16 µM | 0.5 µM | – | 3.3 | – |
| COc1cc(Nc2c(C#N)cnc3cc(-c4cc[nH]c4)sc23)c(Cl)cc1Cl [Example 90, 7-[(2,4-dichloro-5-methoxyphenyl)amino]-2-(1H-pyrrol-3-yl)thieno[3,2-b]pyridine-′6-carbonitrile] | 2.6 µM and 3.1 µM | 2.7 µM and 2.4 µM | – | – | – |
| COc1cc(Nc2c(C#N)cnc3cc(C#Cc4cn[nH]c4)sc23)c(Cl)cc1Cl [Example 101, 7-[(2,4-dichloro-5-methoxyphenyl)amino]-2-(1H-pyrazol-4-ylethynyl)thieno[3,2-b]pyridine-6-carbonitrile] | 0.81 µM | 0.938 µM and 0.804 µM | – | 0.804 | – |
| COc1cc(Nc2c(C#N)cnc3cc(-c4ccc(CN5C[C@H](C)NC[C@H]5C)cc4)sc23)c(Cl)cc1Cl [Example 114, 7-[(2,4-dichloro-5-methoxyphenyl)amino]-2-(4{[(2R,5S)-2,5-dimethylpiperazin-1-I]methyl}phenyl)thieno[3,2-b]pyridine-6-carbonitrile] | – | 0.156 µM and 0.174 µM | – | – | – |
| COc1cc(Nc2c(C#N)cnc3cc(-c4ccc(CN5CCN(Cc6ccccn6)CC5)cc4)sc23)c(Cl)cc1Cl [Example 124, 7-[(2,4-dichloro-5-methoxyphenyl)amino]-2-(4-{[4-(pyridin-2-ylmethyl)piperazin-1-yl]methyl}phenyl)thieno[3,2-b]pyridine-6-carbonitrile] | 0.576 µM | – | 105 to 107 | 0.914 | – |
| COc1cc(Nc2c(C#N)cnc3cc(-c4ccn(CCN(C)C)c4)sc23)c(Cl)cc1Cl [Example 125, 7-[(2,4-dichloro-5-methoxyphenyl)amino]-2-{1-[2-(dimethylamino)ethyl]-1H-pyrrol-3-yl}thieno[3,2-b]pyridine-6-carbonitrile] | – | > 10 µM and 5.8 µM | – | > 10 | – |
| COc1cc(Nc2c(C#N)cnc3cc(C#Cc4cncn4C)sc23)c(Cl)cc1Cl [Example 127, 7-[(2,4-dichloro-5-methoxyphenyl)amino]-2-[(1-methyl-1H-imidazol-5-yl)ethynyl]thieno[3,2-b]pyridine-6-carbonitrile] | – | > 10 µM | – | – | Src Cells IC50 μM or % inhib at 10 μM (% values) ([1]; Table 3, at 10 μM): 0% and 9% |
| COc1cc(Nc2c(C#N)cnc3cc(-c4cn[nH]c4)sc23)c(Cl)cc1Cl [Example 129, 7-[(2,4-dichloro-5-methoxyphenyl)amino]-2-(1 H-pyrazol-4-yl)thieno[3,2-b]pyridine-6-carbonitrile] | 2.19 µM | 1.46 µM and 1.4 µM | – | 3.23 | – |
| COc1cc(Nc2c(C#N)cnc3cc(C#Cc4cnn(CCO)c4)sc23)c(Cl)cc1Cl [Example 130, 7-[(2,4-dichloro-5-methoxyphenyl)amino]-2-{[1-(2-hydroxyethyl)-1H-pyrazol-4-yl]ethynyl}thieno[3,2-b]pyridine-6-carbonitrile] | 3.2 µM | 3.64 µM and 4.07 µM | – | 5.59 | – |
| COc1cc(Nc2c(C#N)cnc3cc(-c4cnn(CCN5CCOCC5)c4)sc23)c(Cl)cc1Cl [Example 131, 7-[(2,4-dichloro-5-methoxyphenyl)amino]-2-[1-(2-morpholin-4-ylethyl)-1H-pyrazol-4-yl]thieno[3,2-b]pyridine-6-carbonitrile] | – | > 10 µM | – | – | inhibition at 10 µM ([1]; Rattus norvegicus, Rat2, Table 3, at 10 μM, read-out: Src Cells IC50 μM or % inhib at 10 μM (% values)): 16%; Src Cells IC50 μM or % inhib at 10 μM (% values) ([1]; Table 3, at 10 μM): 17% |
| COc1cc(Nc2c(C#N)cnc3cc(-c4ccc(CN(C)C)cn4)sc23)c(Cl)cc1Cl [Example 132, 7-[(2,4-dichloro-5-methoxyphenyl)amino]-2-{5-[(dimethylamino)methyl]pyridin-2-yl}thieno[3,2-b]pyridine-6-carbonitrile] | – | 0.112 µM and 0.096 µM | – | – | – |
